How the values were obtained:
[1] = tested on: human cancer cells; test: NCI screen summary over the cancers tested (negative growth of human cancer cells); type: cell-based; conditions: 10^−4 M conc.; cancers with negative growth / cancers tested
Method: (§1) In the NCI screening process, each compound was tested and described by a minimum of 60 data points. The test data include, but are not limited to the type of cancer, the molar concentration used in the screen, and the percent growth of the cancer. In some cases, NMR and elemental analysis were used for structural assignment.
The derivatives in the tables are grouped using the same category as in the tables 1-6.

[2] = tested on: BT-549; test: NCI screen, growth of human tumor cells: Breast Cancer BT-549; type: cell-based
Method: as §1

[3] = tested on: SF-539; test: NCI screen, growth of human tumor cells: CNS Cancer SF-539; type: cell-based; conditions: SF-539 (CNS Cancer), 10^−4 molar
Summary of the method: (§2)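 Growth of human tumor cells, expressed as percent, was determined in the NCI screen. Test data list the cancer type and the molar concentration applied.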

[4] = tested on: UACC-62; test: NCI screen, growth of human tumor cells: Melanoma UACC-62; type: cell-based; conditions: UACC-62 (Melanoma), 10^−4 molar
Summary of the method: as §2

[5] = tested on: NCI-H226; test: NCI screen, growth of human tumor cells: Non-Small Cell Lung NCI-H226; type: cell-based; conditions: NCI-H226 (Non-Small Cell Lung), 10^−4 molar
Method: as §1

With `O=S1(=O)OCCOS(=O)(=O)C1(F)Br` [NSC 665943, ethylene fluorobromomethanedisulfonate] as the molecule, how does the melting point read?
Its melting point is 82 to 90 °C.

What about the “Percentage of cancers showing negative growth cancers tested” value [1] of the same molecule?
Its value is 10^−4 M conc. = 0/1 = 0%.

What about the “% Growth” value ([2]; BT-549, 10^−4 molar) of the same molecule?
The value was 12%.

What about the “% Growth” value ([2]; BT-549, 10^−5 molar) of the same molecule?
The value was 28%.

And the “% Growth” value ([2]; BT-549, 10^−6 molar)?
Its value is 52%.

What about the “% Growth” value ([2]; BT-549, 10^−7 molar) of the same molecule?
The value was 42%.

And the “% Growth” value ([2]; BT-549, 10^−8 molar)?
The value was 44%.

Which melting point does the source give for `O=S1(=O)OCCOS(=O)(=O)C1F` [NSC 665942, ethylene fluoromethanedisulfonate] here?
Its melting point is 84 to 86 °C.

What about the “percent of growth of human tumor cells” value [3] of the same molecule?
The value was 28%.

What about the “Percentage of cancers showing negative growth cancers tested” value [1] of the same molecule?
Its value is 10^−4 M conc. = 0/1 = 0%.

What does the source list for `O=S1(=O)OCCOS(=O)(=O)C1I` [NSC 648309, ethylene iodomethanedisulfonate]?
percent of growth of human tumor cells [4]: 17%; melting point: 144 to 160 °C; percent of growth of human tumor cells [5]: 20%; Percentage of cancers showing negative growth cancers tested [1]: 10^−4 M conc. = 0/2 = 0%
